This experiment concerns the target T1, peptide deformylase (Escherichia coli, UniProt P0A6K3).
T1 construct: made in house
Briefly: Peptide deformylase assay (continuous / discontinuous, f-ML-pNA substrate coupled with Aeromonas aminopeptidase). The format is biochemical. The conditions noted are these: tested as a 1:1 mixture of diastereomers; read-out: IC50 against peptide deformylase. As to the method:
The dipeptide substrate, N-formyl-methionylleucyl-p-nitroanilide (f-ML-pNA) is first deformylated by the peptide deformylase to give the corresponding dipeptide with a free amino terminus, which is a substrate for an aminopeptidase from Aeromonas proteolytica (Sigma Chemical Company). Sequential action by the aminopeptidase releases p-nitroaniline, a chromophore which can be detected spectrophotometrically. Peptide deformylase enzyme is prepared as described in Rajagopalan et al., Biochemistry (1997) 36:13910-13918. The dipeptide substrate is prepared as described in Wei and Pei (1997) Anal. Biochem. 250:29-34. Assays are carried out at 23° C. Assays are performed in polystyrene cuvettes which contain 50 mM potassium phosphate, pH 7.0, 100 μM ethylene glycol bis(b-aminoethyl ether)-N,N′-tetraacetic acid (EGTA), 0 to 200 μM peptide substrate, and 0.8 unit Aeromonas aminopeptidase. […] Reactions are monitored continuously at 405 nm in a Perkin-Elmer λ3 UV/VIS spectrophotometer, and the initial rates are calculated from the early part of the reaction progression curves (<60 s). […]
Discontinuous reactions are carried out in a buffer containing 50 mM potassium phosphate, pH 7.0, 100 μM EGTA, and 0 to 200 μM peptide substrate (total volume 250 or 500 μl). […] The amount of p-nitroaniline released is determined by measuring its absorbance at 405 nm. […]

Two molecules from patent US6448058B1, “Methods for solid phase synthesis of mercapto compounds and derivatives, combinatorial libraries thereof and compositions obtained thereby” (Versicor, Inc., priority 1997, dated 2002) can be followed below.

T1 sequence (P0A6K3 whole entry): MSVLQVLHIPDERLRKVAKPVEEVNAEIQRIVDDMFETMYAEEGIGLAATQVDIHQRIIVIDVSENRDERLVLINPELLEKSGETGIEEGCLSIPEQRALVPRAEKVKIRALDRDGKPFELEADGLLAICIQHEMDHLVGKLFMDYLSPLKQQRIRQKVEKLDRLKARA

`CCCCC(CS)C(=O)N[C@@H](CC(C)C)C(=O)Nc1ccc([N+](=O)[O-])cc1` (mixture of isomers) [Compound 110]: the IC50 is below 10 µM. The figure for `CCCCC(CS)C(=O)N[C@H](C(=O)N1CCC[C@H]1CO)C(C)C` (mixture of isomers) [Compound 111] is below 10 µM.
